# Test results taken from patent publication US9669100B2, “Polymer support for the distribution of a naturally crystalline substance and production method” (priority 2013, dated 2017).
# Columns and labels:
# [1] = Solubilisation of naturally crystalline substances in the solvent mixture (dibasic esters / dimethyl isosorbide); assay type: physicochemical; details: solvent mixture solvent/cosolvent
# [2] = Stability of the active solution (limpid, no recrystallisation); assay type: physicochemical; details: ESTASOL/ARLASOLVE DMI plus refined coconut oil; after stirring (30 min Example 1, 20 min Example 3)
# Experimental: In a 1 liter beaker, the following products are successively introduce with stirring:
# And then introduce by sprinkling while still stirring:
# After completely dissolving, pour while still stirring:
# 300 g refined coconut oil.
# In a 1 liter beaker, the following are successively added under stirring:
# 100 g refined coconut oil.
# All is stirred for 20 minutes until the active solution becomes limpid.
structure (smiles),measurement,setting,value
CNC(=O)Oc1ccccc1OC(C)C [Propoxur],concentration dissolved in a stable manner in the solvent mixture,[1],56 % by weight of solution
CC1(C)[C@H](C(=O)O[C@H](C#N)c2cccc(Oc3ccccc3)c2)[C@@H]1C=C(Br)Br [Deltamethrin],maximum concentration possible without recrystallization in the active solution,"[1]; cold solution, even at low temperature",≤ 20 % by weight
Cn1c(=O)c2c(ncn2C)n(C)c1=O [Caffeine],state of the active solution after preparation,[2],does not recrystallise
